Measurements published in patent US12622918B2, “Formulations and dosages for administering a compound that inhibits MCL1 protein” (Amgen Inc., priority 2019, dated 2026).
pIC50: −log10 of the molar value.

System: U26681
Assay: Cell viability (CellTiterGlo), U26681
Assay type: cell-based
Conditions: U26681, Multiple myeloma; 24 hours; 10% FBS; read-out: AMS 176 IC50

CO[C@H]1/C=C/C[C@H](C)[C@@H](C)S(=O)(=O)NC(=O)c2ccc3c(c2)N(C[C@@H]2CC[C@H]21)C[C@@]1(CCCc2cc(Cl)ccc21)CO3 [AMG 176]
pIC50: 5.09
